Measurements taken from PubChem BioAssay (NCI).
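Each compound was tested at five concentrations against cells in 96-well plates for 48 hours. TGI: concentration producing complete growth inhibition.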

What was measured:
Assay in all cases: NCI-60 cell line screen, 48 h
CAKI-1 renal = tested on: CAKI-1 renal
SK-MEL-2 melanoma = tested on: SK-MEL-2 melanoma
CCRF-CEM leukemia = tested on: CCRF-CEM leukemia
A549 NSCLC = tested on: A549 NSCLC
LXFL 529 NSCLC = tested on: LXFL 529 NSCLC
MALME-3M melanoma = tested on: MALME-3M melanoma
UACC-62 melanoma = tested on: UACC-62 melanoma
COLO 205 colon = tested on: COLO 205 colon
786-0 renal = tested on: 786-0 renal
LOX IMVI melanoma = tested on: LOX IMVI melanoma
U251 CNS = tested on: U251 CNS
XF 498 CNS = tested on: XF 498 CNS
SF-539 CNS = tested on: SF-539 CNS
RPMI-8226 leukemia = tested on: RPMI-8226 leukemia
RXF 393 renal = tested on: RXF 393 renal
SNB-78 CNS = tested on: SNB-78 CNS
KM20L2 colon = tested on: KM20L2 colon
A498 renal = tested on: A498 renal
RXF-631 renal = tested on: RXF-631 renal
IGROV1 ovarian = tested on: IGROV1 ovarian
HT29 colon = tested on: HT29 colon
OVCAR-8 ovarian = tested on: OVCAR-8 ovarian
UACC-257 melanoma = tested on: UACC-257 melanoma
EKVX NSCLC = tested on: EKVX NSCLC
NCI-H460 lung = tested on: NCI-H460 lung
UO-31 renal = tested on: UO-31 renal
MOLT-4 leukemia = tested on: MOLT-4 leukemia
OVCAR-5 ovarian = tested on: OVCAR-5 ovarian
DMS 273 small cell lung = tested on: DMS 273 small cell lung
HCT-116 colon = tested on: HCT-116 colon
SN12C renal = tested on: SN12C renal
HOP-62 NSCLC = tested on: HOP-62 NSCLC
OVCAR-4 ovarian = tested on: OVCAR-4 ovarian
HCT-15 colon = tested on: HCT-15 colon
DLD-1 colon = tested on: DLD-1 colon
SW-620 colon = tested on: SW-620 colon
K-562 leukemia = tested on: K-562 leukemia
SNB-75 CNS = tested on: SNB-75 CNS
OVCAR-3 ovarian = tested on: OVCAR-3 ovarian
KM12 colon = tested on: KM12 colon
M19-MEL melanoma = tested on: M19-MEL melanoma
SF-295 CNS = tested on: SF-295 CNS
HCC-2998 colon = tested on: HCC-2998 colon
SF-268 CNS = tested on: SF-268 CNS
SK-MEL-28 melanoma = tested on: SK-MEL-28 melanoma
NCI-H23 lung = tested on: NCI-H23 lung
SK-MEL-5 melanoma = tested on: SK-MEL-5 melanoma
TK-10 renal = tested on: TK-10 renal
M14 melanoma = tested on: M14 melanoma
SK-OV-3 ovarian = tested on: SK-OV-3 ovarian
NCI-H522 lung = tested on: NCI-H522 lung
HOP-18 NSCLC = tested on: HOP-18 NSCLC
ACHN renal = tested on: ACHN renal
NCI-H226 lung = tested on: NCI-H226 lung
HL-60(TB) leukemia = tested on: HL-60(TB) leukemia
SR leukemia = tested on: SR leukemia
HOP-92 NSCLC = tested on: HOP-92 NSCLC
DMS 114 small cell lung = tested on: DMS 114 small cell lung
SNB-19 CNS = tested on: SNB-19 CNS

CCC12CC[C@H](C#N)N3CCc4c(n(c5ccccc45)C(=O)C1)C32 (stereo partly drawn)
TGI (CAKI-1 renal): 34.3 µM | TGI (SK-MEL-2 melanoma): 31.9 µM | TGI (CCRF-CEM leukemia): 44.3 µM | TGI (A549 NSCLC): 61.3 µM | TGI (LXFL 529 NSCLC): 33.7 µM | TGI (MALME-3M melanoma): 19.3 µM | TGI (UACC-62 melanoma): 33.4 µM | TGI (COLO 205 colon): 43.1 µM | TGI (786-0 renal): 34.1 µM | TGI (LOX IMVI melanoma): 27.3 µM | TGI (U251 CNS): 29.8 µM | TGI (XF 498 CNS): 36.5 µM | TGI (SF-539 CNS): 38.2 µM | TGI (RPMI-8226 leukemia): 48.9 µM | TGI (RXF 393 renal): 29.6 µM | TGI (SNB-78 CNS): 51.9 µM | TGI (KM20L2 colon): 35 µM | TGI (A498 renal): 35.1 µM | TGI (RXF-631 renal): 45.1 µM | TGI (IGROV1 ovarian): 63.3 µM | TGI (HT29 colon): 31.3 µM | TGI (OVCAR-8 ovarian): 57.5 µM | TGI (UACC-257 melanoma): 32.9 µM | TGI (EKVX NSCLC): 64.1 µM | TGI (NCI-H460 lung): 33.8 µM | TGI (UO-31 renal): 10.2 µM | TGI (MOLT-4 leukemia): 52 µM | TGI (OVCAR-5 ovarian): 38.5 µM | TGI (DMS 273 small cell lung): 19 µM | TGI (HCT-116 colon): 26.8 µM | TGI (SN12C renal): 37.8 µM | TGI (HOP-62 NSCLC): 49.2 µM | TGI (OVCAR-4 ovarian): 31.7 µM | TGI (HCT-15 colon): 20.3 µM | TGI (DLD-1 colon): 43.8 µM | TGI (SW-620 colon): 51.7 µM | TGI (K-562 leukemia): 35 µM | TGI (SNB-75 CNS): 27.6 µM | TGI (OVCAR-3 ovarian): 29 µM | TGI (KM12 colon): 22.5 µM | TGI (M19-MEL melanoma): 73.2 µM | TGI (SF-295 CNS): 31.2 µM | TGI (HCC-2998 colon): 32.4 µM | TGI (SF-268 CNS): 53.7 µM | TGI (SK-MEL-28 melanoma): 40.4 µM | TGI (NCI-H23 lung): 41.8 µM | TGI (SK-MEL-5 melanoma): 27.2 µM | TGI (TK-10 renal): 46.8 µM | TGI (M14 melanoma): 44.9 µM | TGI (SK-OV-3 ovarian): 75 µM

CCOC(=O)C(=O)Nc1ccc([N+](=O)[O-])cc1C#N
TGI (NCI-H522 lung): > 100 µM | TGI (CAKI-1 renal): > 100 µM | TGI (SK-MEL-2 melanoma): > 100 µM | TGI (CCRF-CEM leukemia): > 100 µM | TGI (A549 NSCLC): > 100 µM | TGI (LXFL 529 NSCLC): > 100 µM | TGI (MALME-3M melanoma): > 100 µM | TGI (UACC-62 melanoma): > 100 µM | TGI (786-0 renal): > 100 µM | TGI (LOX IMVI melanoma): > 100 µM | TGI (U251 CNS): > 100 µM | TGI (XF 498 CNS): > 100 µM | TGI (SF-539 CNS): > 100 µM | TGI (RPMI-8226 leukemia): > 100 µM | TGI (RXF 393 renal): > 100 µM | TGI (RXF-631 renal): > 100 µM | TGI (HOP-18 NSCLC): > 100 µM | TGI (ACHN renal): > 100 µM | TGI (IGROV1 ovarian): > 100 µM | TGI (NCI-H226 lung): > 100 µM | TGI (HT29 colon): > 100 µM | TGI (OVCAR-8 ovarian): > 100 µM | TGI (UACC-257 melanoma): > 100 µM | TGI (EKVX NSCLC): > 100 µM | TGI (HL-60(TB) leukemia): > 100 µM | TGI (NCI-H460 lung): > 100 µM | TGI (UO-31 renal): > 100 µM | TGI (MOLT-4 leukemia): > 100 µM | TGI (OVCAR-5 ovarian): > 100 µM | TGI (HCT-116 colon): > 100 µM | TGI (SN12C renal): > 100 µM | TGI (HOP-62 NSCLC): > 100 µM | TGI (OVCAR-4 ovarian): > 100 µM | TGI (HCT-15 colon): > 100 µM | TGI (DLD-1 colon): > 100 µM | TGI (SW-620 colon): > 100 µM | TGI (SR leukemia): > 100 µM | TGI (K-562 leukemia): > 100 µM | TGI (OVCAR-3 ovarian): > 100 µM | TGI (KM12 colon): > 100 µM | TGI (HOP-92 NSCLC): > 100 µM | TGI (M19-MEL melanoma): > 100 µM | TGI (SF-295 CNS): > 100 µM | TGI (HCC-2998 colon): > 100 µM | TGI (SF-268 CNS): > 100 µM | TGI (SK-MEL-28 melanoma): > 100 µM | TGI (NCI-H23 lung): > 100 µM | TGI (DMS 114 small cell lung): > 100 µM | TGI (SK-MEL-5 melanoma): > 100 µM | TGI (TK-10 renal): > 100 µM | TGI (M14 melanoma): > 100 µM | TGI (SNB-19 CNS): > 100 µM | TGI (SK-OV-3 ovarian): > 100 µM
